In US20030073731A1, “Compositions and methods of the use thereof achiral analogues of CC-1065 and the duocarmycins” (priority 2000, published 2003):
Read-outs that look alike come from different tables or passages of the source.

Assays:
SW-620 = assay: cells; conditions: Homo sapiens
KM12 = assay: cells; conditions: Homo sapiens
[1] = tested on: PC3 (human prostate cancer cells); assay: cells; format: cell-based
Procedure: (§1) Cells were seeded in 96-well microtiter plates at densities of 1000 cells/well. The optimal seeding density was determined to ensure exponential growth in control wells throughout the experimental period and to obtain a linear relationship between absorbance at 492 nm and cell number when analyzed by the sulforhodamine B (SRB) assay (43). 24 hours after seeding the cells were incubated for 1 hour or continuously for 3 days with the drugs (concentration range 0.01 to 500 pM). The cells were washed once and then incubated in drug free medium for 6 days. At the end of the incubation cell growth was determined by the SRB assay, which quantifies viable cells by measuring their total cellular protein content. […] Similar studies were conducted against the growth of PC3 (human prostate cancer cells) and MCF-7 (human breast cancer cells).

HS 578T [2] = assay: cells; conditions: Homo sapiens
IGROV1 = assay: cells; format: cell-based, human
U251 [3] = assay: cells; conditions: Homo sapiens
[4] = tested on: MCF-7 (human breast cancer cells); assay: cells; format: cell-based
Procedure: as §1

HOP-92 [5] = tested on: HOP-92
HCC-2998 [6] = assay: cells; conditions: Homo sapiens
M14 = assay: cells; conditions: Homo sapiens
A498 = assay: NCI in-vitro cytotoxicity screen, Renal Cancer panel; format: cell-based; conditions: Homo sapiens
Procedure: (§2) The compounds of this invention were also tested against the panel of 60 human cancer cell lines at the National Cancer Institute, Bethesda, Md. […] The cytotoxicity studies were conducted using a 48 hour exposure, and measuring the optical density of sulforhodamine B-derived color.

786-0 = assay: cells; conditions: Homo sapiens
[7] = tested on: human colon adenocarcinoma cell line, LS 174T; assay: cells; conditions: LS174T
Procedure: as §1

HOP-92 [8] = assay: cells; conditions: Homo sapiens
SK-OV-3 = assay: cells; conditions: Homo sapiens
NCI-H460 = assay: NCI in-vitro cytotoxicity screen, Non-Small Cell Lung Cancer panel; format: cell-based; conditions: Homo sapiens
Procedure: as §2

CCRF-CEM = assay: cells; conditions: Homo sapiens
UACC-62 [9] = assay: cells; conditions: Homo sapiens
SNB-19 [10] = assay: cells; conditions: Homo sapiens
SR = assay: cells; format: cell-based, human
MCF7/ADR-RES = assay: cells; format: cell-based, human
MDA-MB-231/ATCC = assay: cells; conditions: Homo sapiens
MALME-3M = format: cell-based, human
UACC-62 [11] = tested on: UACC-62
U251 [12] = tested on: U251
HCC-2998 [13] = tested on: HCC-2998
plasmid pBR322 DNA = assay: Taq polymerase stop assay; format: biochemical
HS 578T [14] = tested on: HS 578T
SNB-19 [15] = tested on: SNB-19

COC(=O)c1[nH]c2c(O)cc(NC(=O)c3cc4cc(OC)c(OC)c(OC)c4[nH]3)c(CCCl)c2c1C(=O)OC [Compound 22, Dimethyl 4-(2-chloroethyl)-7-hydroxy-5-(5,6,7-trimethoxyindole-2-carboxamido)indole-2,3-dicarboxylate]
GI50 (SW-620; SW-620): 109 nM | CC50 (SW-620; SW-620, read-out: LC50): > 50000 nM | GI50 (KM12; KM12): 87.4 nM | CC50 (KM12; KM12, read-out: LC50): 474 nM | IC50 ([1]; Homo sapiens, PC3, 1 hour exposure): 350 nM | IC50 ([1]; Homo sapiens, PC3, Continuous exposure): 50 nM | GI50 (HS 578T [2]): 138 nM | CC50 (HS 578T [2]; read-out: LC50): 946 nM | GI50 (IGROV1; Homo sapiens, IGROV-1, IGROV1): 62.1 nM | GI50 (U251 [3]; U-251): 120 nM | CC50 (U251 [3]; U-251, read-out: LC50): > 50000 nM | IC50 ([4]; MCF7, MCF-7, 1 hour exposure): 970 nM | IC50 ([4]; MCF7, MCF-7, Continuous exposure): 130 nM | TGI (HOP-92 [5]; HOP-92): 2.57E−07 Molar | GI50 (HCC-2998 [6]; HCC 2998): 102 nM | CC50 (HCC-2998 [6]; HCC 2998, read-out: LC50): 10800 nM | GI50 (M14; M14): 76.4 nM | CC50 (M14; M14, read-out: LC50): 368 nM | GI50 (A498; A498): 164 nM | CC50 (A498; A498, read-out: LC50): 20700 nM | GI50 (786-0; 786-0): 123 nM | CC50 (786-0; 786-0, read-out: LC50): > 50000 nM | IC50 [7]: 4 nM | IC50 ([7]; 1 h): 1860 nM | GI50 (HOP-92 [8]; HOP-92): 179 nM | CC50 (HOP-92 [8]; HOP-92, read-out: LC50): > 50000 nM | GI50 (SK-OV-3; SK-OV-3): 269 nM | CC50 (SK-OV-3; SK-OV-3, read-out: LC50): 44600 nM | GI50 (NCI-H460): 114 nM | GI50 (CCRF-CEM): 31.8 nM | CC50 (CCRF-CEM; read-out: LC50): > 50000 nM | GI50 (UACC-62 [9]; UACC-62): 78.2 nM | CC50 (UACC-62 [9]; UACC-62, read-out: LC50): 436 nM | GI50 (SNB-19 [10]; SNB-19): 173 nM | CC50 (SNB-19 [10]; SNB-19, read-out: LC50): > 50000 nM | GI50 (SR; Homo sapiens, SR, SB): 5.6 nM | GI50 (MCF7/ADR-RES; Homo sapiens, NCI/ADR-RES): 137 nM | GI50 (MDA-MB-231/ATCC; MDA-MB-231): 171 nM | CC50 (MDA-MB-231/ATCC; MDA-MB-231, read-out: LC50): > 50000 nM

4-(2-Chloroethyl)-3-[5-(5-benzofuran-2-carboxamido)indole-2-carboxamido]phenol [Compound 1]
GI50 (MALME-3M): 1840 nM | TGI (MALME-3M): 3.56E-06 Molar | GI50 (UACC-62 [11]): 1970 nM | TGI (UACC-62 [11]): 3.49E-06 Molar | GI50 (U251 [12]): 2410 nM | TGI (U251 [12]): 1.23E-05 Molar | GI50 (HCC-2998 [13]): 1760 nM | TGI (HCC-2998 [13]): 3.56E-06 Molar | IC50 ([1]; PC3, Continuous exposure): 3000 nM | GI50 (IGROV1): 1500 nM | TGI (IGROV1): 3.41E-06 Molar | GI50 (HOP-62): 453 nM | TGI (HOP-62): 3.07E-06 Molar | GI50 (HOP-92 [5]): 2620 nM | GI50 (SK-MEL-2): 1320 nM | TGI (SK-MEL-2): 2.67E-06 Molar | GI50 (NCI-H226): 4090 nM | TGI (NCI-H226): 1.62E-05 Molar | sequence selectivity compared with compound 27 (plasmid pBR322 DNA): stronger sequence selectivity than 27 | GI50 (HS 578T [14]): 11800 nM | TGI (HS 578T [14]): 3.96E-06 Molar | GI50 (OVCAR-8): 1320 nM | TGI (OVCAR-8): 3.28E-06 Molar | GI50 (HT29): 2290 nM | TGI (HT29): 1.115E-05 Molar | GI50 (SF-268): 13400 nM | TGI (SF-268): 2.78e-05 Molar | GI50 (SNB-19 [15]): 3530 nM | TGI (SNB-19 [15]): 1.38E-05 Molar | GI50 (NCI-H23): 1670 nM | TGI (NCI-H23): 3.38E-06 Molar | GI50 (MCF7): 1030 nM | TGI (MCF7): 2.27E-06 Molar | GI50 (PC-3): 969 nM | TGI (PC-3): 3.99E-06 Molar | GI50 (MOLT-4): 1140 nM | GI50 (SR): 852 nM | TGI (SR): 8.12E-06 Molar | GI50 (MCF7/ADR-RES; MCF7/ADR-RES): 1650 nM | TGI (MCF7/ADR-RES; MCF7/ADR-RES): 3.79E-06 Molar | Percent Growth (MCF7/ADR-RES; MCF7/ADR-RES, Log10 Concentration (Molar) −4.0): −55% | Percent Growth (MCF7/ADR-RES; MCF7/ADR-RES, Log10 Concentration (Molar) −7.0): 97%
